Results taken from patent US12668585B2, “Substituted pyrimidinyl-pyrazoles as CDK2 inhibitors” (BLUEPRINT MEDICINES CORPORATION, priority 2021, dated 2026).
Like-named read-outs stand apart in the source and are kept apart here.

What was measured:
[1] = target: T1, CDK2/Cyclin E (Homo sapiens, UniProt P24941); assay: Biochemical CDK inhibition assay (Caliper mobility shift), CDK2/Cyclin E; details: read-out: CDK2/cyclin E1 IC50
T1 construct: purchased Eurofins 14-475
Experimental: (§1) Inhibitory effects of the compounds of the disclosure were measured in biochemical assays that measure the enzymatic phosphorylation activity of CDK enzyme in complex of Cyclin proteins phosphorylates 7.5 micromolar fluorescently labelled peptide substrate, 5-FAM-QSPKKG-CONH2, (FL-Peptide 18, Perkin Elmer, 760362) in the presence of adenosine-5′-triphosphate (ATP) and varying concentrations of the test compound in 100 mM 2-[4-(2-hydroxyethyl)piperazin-1-yl] ethanesulfonic acid (HEPES), pH 7.5, 10 mM MgCl2, 0.015% Brij-35, 1 mM dithiothreitol (DTT), 1.0% dimehylsulfoxide (DMSO). […] Reactions proceeded until between 10% to 20% total peptides were phosphorylated at room temperature (25° C.) and were terminated with 35 mM 2,2′,2″,2′″-(ethane-1,2-diyldinitrilo)tetraacetic acid (EDTA). Product was detected using the Caliper mobility shift detection method where the phosphorylated peptide (product) and substrate were electrophoretically separated and measured. Percent activity was plotted against log concentration of compound and points to generate an apparent IC50. The following CDK enzymes in complex with different cyclin proteins were used in these assays: • CDK1/Cyclin B1, GST-tag (BPS, 40454), 1.5 nM used in the assay • CDK2/Cyclin E (Eurofins, 14-475), 1.25 nM used in the assays
(§2) For inhibitory activity against CDK2/Cyclin E mutant, the following designations are used: ≤10 nM=A; >10-20 nM=B; >20-30 nM=C; >30-100 nM=D and >100=E. For inhibition CDK1/Cyclin B1, GST-tag: ≥500 nM=A; <100-500 nM=B; <100 nM=C.

[2] = target: T2, CDK1/Cyclin B1, GST-tag (Homo sapiens, UniProt P06493); assay: Biochemical CDK inhibition assay (Caliper mobility shift), CDK1/Cyclin B1
T2 construct: GST; purchased BPS 40454
T2 sequence (P06493 whole entry): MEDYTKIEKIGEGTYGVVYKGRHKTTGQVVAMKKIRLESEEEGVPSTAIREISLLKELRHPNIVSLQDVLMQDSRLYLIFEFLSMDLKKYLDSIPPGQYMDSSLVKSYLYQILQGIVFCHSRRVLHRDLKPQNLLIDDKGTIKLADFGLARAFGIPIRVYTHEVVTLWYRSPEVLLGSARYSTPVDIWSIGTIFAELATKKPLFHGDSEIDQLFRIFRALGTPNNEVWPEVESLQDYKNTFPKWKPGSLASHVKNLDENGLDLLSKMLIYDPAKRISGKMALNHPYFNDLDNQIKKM
T2 sequence (P14635 whole entry partner): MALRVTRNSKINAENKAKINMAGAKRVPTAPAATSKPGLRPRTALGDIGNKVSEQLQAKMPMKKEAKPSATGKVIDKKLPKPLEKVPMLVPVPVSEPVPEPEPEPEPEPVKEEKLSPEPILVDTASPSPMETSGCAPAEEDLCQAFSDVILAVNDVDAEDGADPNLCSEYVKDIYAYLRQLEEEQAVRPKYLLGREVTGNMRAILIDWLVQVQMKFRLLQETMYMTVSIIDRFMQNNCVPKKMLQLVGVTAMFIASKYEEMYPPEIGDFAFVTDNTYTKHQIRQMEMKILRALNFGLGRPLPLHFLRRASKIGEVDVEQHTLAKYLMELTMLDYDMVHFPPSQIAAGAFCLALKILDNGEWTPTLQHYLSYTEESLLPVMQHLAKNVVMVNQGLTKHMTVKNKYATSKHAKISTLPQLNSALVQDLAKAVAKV
Experimental: as §1, §2

Molecule | IC50 [1] [nM] | IC50 [2] [nM] | IC50 ([1]; apparent IC50, 1.25 nM enzyme, 1.0 mM ATP or ATP Km, 7.5 micromolar FL-Peptide 18, 25° C.) [nM] | IC50 ([2]; apparent IC50, 1.5 nM enzyme, 1.0 mM ATP or ATP Km, 7.5 micromolar FL-Peptide 18, 25° C.) [nM]
NS(=O)(=O)c1ccc(Nc2ncc(C(F)(F)F)c(-c3cnn(CC(O)C4CC4)c3)n2)c(F)c1 (stereo not shown) [Example 32, 4-((4-(1-(2-cyclopropyl-2-hydroxyethyl)-1H-pyrazol-4-yl)-5-(trifluoromethyl)pyrimidin-2-yl)amino)-3-fluorobenzenesulfonamide] | 10 to 20 | ≥ 500 | – | –
N#Cc1cnc(Nc2ccc(S(N)(=O)=O)cc2)nc1-c1cnn(CCO)c1 [Example 34, 4-((5-cyano-4-(1-(2-hydroxyethyl)-1H-pyrazol-4-yl)pyrimidin-2-yl)amino)benzenesulfonamide] | 10 to 20 | 100 to 500 | – | –
3-fluoro-4-((4-(1-(2-hydroxyethyl)-1H-pyrazol-4-yl)-5-(trifluoromethyl)pyrimidin-2-yl)amino)benzenesulfonamide or 3-fluoro-4-((2-(1-(2-hydroxyethyl)-1H-pyrazol-4-yl)-5-(trifluoromethyl)pyrimidin-4-yl)amino)benzenesulfonamide [Example 33] | – | – | 10 to 20 | ≥ 500
CCc1cnc(Nc2ccc(S(N)(=O)=O)cc2F)nc1-c1cnn(CC(C)(C)O)c1 [Example 42, 4-((5-ethyl-4-(1-(2-hydroxy-2-methylpropyl)-1H-pyrazol-4-yl)pyrimidin-2-yl)amino)-3-fluorobenzenesulfonamide] | 20 to 30 | ≥ 500 | – | –
COc1cc(S(N)(=O)=O)ccc1Nc1ncc(F)c(-c2cnn(CC(C)(C)O)c2)n1 [Example 46, 4-((5-fluoro-4-(1-(2-hydroxy-2-methylpropyl)-1H-pyrazol-4-yl)pyrimidin-2-yl)amino)-3-methoxybenzenesulfonamide] | 30 to 100 | ≥ 500 | – | –
COc1c(S(N)(=O)=O)ccc(Nc2ncc(C(F)(F)F)c(-c3cnn(CC(C)(C)O)c3)n2)c1F [Example 40, 3-fluoro-4-((4-(1-(2-hydroxy-2-methylpropyl)-1H-pyrazol-4-yl)-5-(trifluoromethyl)pyrimidin-2-yl)amino)-2-methoxybenzenesulfonamide] | 10 to 20 | ≥ 500 | – | –
Cc1cc(Nc2ncc(C(F)(F)F)c(-c3cnn(CC(C)(C)O)c3)n2)c(F)cc1S(N)(=O)=O [Example 45, 5-fluoro-4-((4-(1-(2-hydroxy-2-methylpropyl)-1H-pyrazol-4-yl)-5-(trifluoromethyl)pyrimidin-2-yl)amino)-2-methylbenzenesulfonamide] | 20 to 30 | ≥ 500 | – | –

Further lines, with some results ahead:

IC50 [1] [nM] | IC50 [2] [nM] | Molecule | IC50 ([1]; apparent IC50, 1.25 nM enzyme, 1.0 mM ATP or ATP Km, 7.5 micromolar FL-Peptide 18, 25° C.) [nM] | IC50 ([2]; apparent IC50, 1.5 nM enzyme, 1.0 mM ATP or ATP Km, 7.5 micromolar FL-Peptide 18, 25° C.) [nM]
≤ 10 | 100 to 500 | C[C@@H](O)Cn1cc(-c2nc(Nc3ccc(S(N)(=O)=O)cc3F)ncc2C(F)(F)F)cn1 [Example 20, (R)-3-fluoro-4-((4-(1-(2-hydroxypropyl)-1H-pyrazol-4-yl)-5-(trifluoromethyl)pyrimidin-2-yl)amino)benzenesulfonamide] | – | –
≤ 10 | 100 to 500 | Cc1cc(S(N)(=O)=O)ccc1Nc1ncc(F)c(-c2cnn(CC(C)(C)O)c2)n1 [Example 31, 4-((5-fluoro-4-(1-(2-hydroxy-2-methylpropyl)-1H-pyrazol-4-yl)pyrimidin-2-yl)amino)-3-methylbenzenesulfonamide] | – | –
≤ 10 | 100 to 500 | Cc1c(S(N)(=O)=O)ccc(Nc2ncc(C(F)(F)F)c(-c3cnn(CC(C)(C)O)c3)n2)c1F [Example 21, 3-fluoro-4-((4-(1-(2-hydroxy-2-methylpropyl)-1H-pyrazol-4-yl)-5-(trifluoromethyl)pyrimidin-2-yl)amino)-2-methylbenzenesulfonamide] | – | –
≤ 10 | 100 to 500 | C[C@H](O)[C@H](C)n1cc(-c2nc(Nc3ccc(S(N)(=O)=O)cc3F)ncc2C(F)(F)F)cn1 (single isomer, unassigned) [Example 9] | – | –
≤ 10 | 100 to 500 | COc1cc(S(N)(=O)=O)ccc1Nc1ncc(C(F)(F)F)c(-c2cnn(CC(C)(C)O)c2)n1 [Example 27, 4-((4-(1-(2-hydroxy-2-methylpropyl)-1H-pyrazol-4-yl)-5-(trifluoromethyl)pyrimidin-2-yl)amino)-3-methoxybenzenesulfonamide] | – | –
≤ 10 | < 100 | CC(C)(O)Cn1cc(-c2nc(Nc3ccc(S(N)(=O)=O)cc3)ncc2F)cn1 [Example 18, 4-((5-fluoro-4-(1-(2-hydroxy-2-methylpropyl)-1H-pyrazol-4-yl)pyrimidin-2-yl)amino)benzenesulfonamide] | – | –
≤ 10 | 100 to 500 | C[C@@H](n1cc(-c2nc(Nc3ccc(S(N)(=O)=O)cc3F)ncc2C(F)(F)F)cn1)C(C)(C)O (single isomer, unassigned) [Example 7, (R)-3-fluoro-4-((4-(1-(3-hydroxy-3-methylbutan-2-yl)-1H-pyrazol-4-yl)-5-(trifluoromethyl)pyrimidin-2-yl)amino)benzenesulfonamide or (S)-3-fluoro-4-((4-(1-(3-hydroxy-3-methylbutan-2-yl)-1H-pyrazol-4-yl)-5-(trifluoromethyl)pyrimidin-2-yl)amino)benzenesulfonamide] | – | –
